Reference: US12544395B2, “Combination compositions comprising a beta-lactamase inhibitor and uses thereof” (priority 2018, dated 2026)

Legend:
Type in all cases: cell-based
[1] = tested on: panel of ESBL-producing Enterobacteriaceae (40 strains); assay: Broth microdilution MIC50/MIC90 summary over the panel
E. coli ESBL 4 = assay: Broth microdilution MIC (strain enzymes: CTX-M15, TEM-1)
E. coli SI-PBLII = assay: Broth microdilution MIC (strain enzymes: CTX-M2, TEM-1)
K. pneumoniae KP 3 = assay: Broth microdilution MIC (strain enzymes: SHV-1, TEM-1)
E. coli 25922 = assay: Broth microdilution MIC (strain enzymes: None detected); details: with inhibitor at 1 μg/mL

In the case of CCC(=O)N[C@H]1Cc2cccc(C(=O)O)c2OB1O [Compound 2, (R)-2-hydroxy-3-propionamido-3,4-dihydro-2H-benzo[e][1,2]oxaborinine-8-carboxylic acid], the “Cefdinir MIC50” value ([1]; with inhibitor at 1 μg/mL) is reported as 0.5 µg/mL, the “Cefdinir MIC90” value ([1]; with inhibitor at 1 μg/mL) is reported as 4 µg/mL and the “Cefixime MIC50” value ([1]; with inhibitor at 1 μg/mL) is reported as 1 µg/mL. The “Cefixime MIC90” value ([1]; with inhibitor at 1 μg/mL) was 4 µg/mL, the “Cefpodoxime MIC50” value ([1]; with inhibitor at 1 μg/mL) was 1 µg/mL and the “Cefpodoxime MIC90” value ([1]; with inhibitor at 1 μg/mL) was 8 µg/mL. For the same compound, the “Ceftibuten MIC50” value ([1]; with inhibitor at 1 μg/mL) was 0.125 µg/mL, the “Ceftibuten MIC90” value ([1]; with inhibitor at 1 μg/mL) was 0.5 µg/mL and the “Cephalexin MIC50” value ([1]; with inhibitor at 1 μg/mL) was 8 µg/mL. The “Cephalexin MIC90” value ([1]; with inhibitor at 1 μg/mL) was 32 µg/mL, the “Cefdinir MIC50” value ([1]; with inhibitor at 2 μg/mL) was 0.5 µg/mL and the “Cefdinir MIC90” value ([1]; with inhibitor at 2 μg/mL) was 2 µg/mL. The “Cefixime MIC50” value ([1]; with inhibitor at 2 μg/mL) was 0.5 µg/mL, the “Cefixime MIC90” value ([1]; with inhibitor at 2 μg/mL) was 4 µg/mL and the “Cefpodoxime MIC50” value ([1]; with inhibitor at 2 μg/mL) was 1 µg/mL. The “Cefpodoxime MIC90” value ([1]; with inhibitor at 2 μg/mL) was 2 µg/mL, the “Ceftibuten MIC50” value ([1]; with inhibitor at 2 μg/mL) was 0.125 µg/mL and the “Ceftibuten MIC90” value ([1]; with inhibitor at 2 μg/mL) was 0.25 µg/mL. For the same compound, the “Cephalexin MIC50” value ([1]; with inhibitor at 2 μg/mL) was 8 µg/mL, the “Cephalexin MIC90” value ([1]; with inhibitor at 2 μg/mL) was 32 µg/mL and the “Cefdinir MIC50” value ([1]; with inhibitor at 4 μg/mL) was 0.5 µg/mL. The “Cefdinir MIC90” value ([1]; with inhibitor at 4 μg/mL) was 2 µg/mL, the “Cefixime MIC50” value ([1]; with inhibitor at 4 μg/mL) was 0.25 µg/mL and the “Cefixime MIC90” value ([1]; with inhibitor at 4 μg/mL) was 1 µg/mL. The “Cefpodoxime MIC50” value ([1]; with inhibitor at 4 μg/mL) was 1 µg/mL, the “Cefpodoxime MIC90” value ([1]; with inhibitor at 4 μg/mL) was 2 µg/mL and the “Ceftibuten MIC50” value ([1]; with inhibitor at 4 μg/mL) was 0.125 µg/mL. For the same compound, the “Ceftibuten MIC90” value ([1]; with inhibitor at 4 μg/mL) was 0.25 µg/mL, the “Cephalexin MIC50” value ([1]; with inhibitor at 4 μg/mL) was 8 µg/mL and the “Cephalexin MIC90” value ([1]; with inhibitor at 4 μg/mL) was 16 µg/mL. For the same compound, the “MIC of cefalexin (LEX)” value (E. coli ESBL 4; with inhibitor at 1 μg/mL) was 2 µg/mL, the “MIC of cefdinir (CDR)” value (E. coli ESBL 4; with inhibitor at 1 μg/mL) was 2 µg/mL and the “MIC of cefixime (CFM)” value (E. coli ESBL 4; with inhibitor at 1 μg/mL) was 0.5 µg/mL. For the same compound, the “MIC of ceftibuten (CTB)” value (E. coli ESBL 4; with inhibitor at 1 μg/mL) was 0.25 µg/mL, the “MIC of cefalexin (LEX)” value (E. coli ESBL 4; with inhibitor at 2 μg/mL) was 1 µg/mL and the “MIC of cefdinir (CDR)” value (E. coli ESBL 4; with inhibitor at 2 μg/mL) was 1 µg/mL. The “MIC of cefixime (CFM)” value (E. coli ESBL 4; with inhibitor at 2 μg/mL) was 0.25 µg/mL, the “MIC of ceftibuten (CTB)” value (E. coli ESBL 4; with inhibitor at 2 μg/mL) was 0.125 µg/mL and the “MIC of cefalexin (LEX)” value (E. coli ESBL 4; with inhibitor at 4 μg/mL) was 0.5 µg/mL. For the same compound, the “MIC of cefdinir (CDR)” value (E. coli ESBL 4; with inhibitor at 4 μg/mL) was 0.5 µg/mL, the “MIC of cefixime (CFM)” value (E. coli ESBL 4; with inhibitor at 4 μg/mL) was 0.25 µg/mL and the “MIC of ceftibuten (CTB)” value (E. coli ESBL 4; with inhibitor at 4 μg/mL) was 0.25 µg/mL. For the same compound, the “MIC of cefalexin (LEX)” value (E. coli SI-PBLII; with inhibitor at 1 μg/mL) was 0.25 µg/mL, the “MIC of cefdinir (CDR)” value (E. coli SI-PBLII; with inhibitor at 1 μg/mL) was 0.25 µg/mL and the “MIC of cefixime (CFM)” value (E. coli SI-PBLII; with inhibitor at 1 μg/mL) was 0.25 µg/mL. For the same compound, the “MIC of ceftibuten (CTB)” value (E. coli SI-PBLII; with inhibitor at 1 μg/mL) was 0.125 µg/mL, the “MIC of cefalexin (LEX)” value (E. coli SI-PBLII; with inhibitor at 2 μg/mL) was 0.25 µg/mL and the “MIC of cefdinir (CDR)” value (E. coli SI-PBLII; with inhibitor at 2 μg/mL) was 0.25 µg/mL. For the same compound, the “MIC of cefixime (CFM)” value (E. coli SI-PBLII; with inhibitor at 2 μg/mL) was 0.25 µg/mL, the “MIC of ceftibuten (CTB)” value (E. coli SI-PBLII; with inhibitor at 2 μg/mL) was 0.125 µg/mL and the “MIC of cefalexin (LEX)” value (E. coli SI-PBLII; with inhibitor at 4 μg/mL) was 0.25 µg/mL. The “MIC of cefdinir (CDR)” value (E. coli SI-PBLII; with inhibitor at 4 μg/mL) was 0.25 µg/mL, the “MIC of cefixime (CFM)” value (E. coli SI-PBLII; with inhibitor at 4 μg/mL) was 0.25 µg/mL and the “MIC of ceftibuten (CTB)” value (E. coli SI-PBLII; with inhibitor at 4 μg/mL) was 0.125 µg/mL. For the same compound, the “MIC of cefalexin (LEX)” value (K. pneumoniae KP 3; with inhibitor at 1 μg/mL) was 0.5 µg/mL, the “MIC of cefdinir (CDR)” value (K. pneumoniae KP 3; with inhibitor at 1 μg/mL) was 0.5 µg/mL and the “MIC of cefixime (CFM)” value (K. pneumoniae KP 3; with inhibitor at 1 μg/mL) was 4 µg/mL. The “MIC of ceftibuten (CTB)” value (K. pneumoniae KP 3; with inhibitor at 1 μg/mL) was 0.25 µg/mL, the “MIC of cefalexin (LEX)” value (K. pneumoniae KP 3; with inhibitor at 2 μg/mL) was 0.25 µg/mL and the “MIC of cefdinir (CDR)” value (K. pneumoniae KP 3; with inhibitor at 2 μg/mL) was 0.25 µg/mL. For the same compound, the “MIC of cefixime (CFM)” value (K. pneumoniae KP 3; with inhibitor at 2 μg/mL) was 4 µg/mL, the “MIC of ceftibuten (CTB)” value (K. pneumoniae KP 3; with inhibitor at 2 μg/mL) was 0.25 µg/mL and the “MIC of cefalexin (LEX)” value (K. pneumoniae KP 3; with inhibitor at 4 μg/mL) was 0.5 µg/mL. The “MIC of cefdinir (CDR)” value (K. pneumoniae KP 3; with inhibitor at 4 μg/mL) was 0.5 µg/mL, the “MIC of cefixime (CFM)” value (K. pneumoniae KP 3; with inhibitor at 4 μg/mL) was 2 µg/mL and the “MIC of ceftibuten (CTB)” value (K. pneumoniae KP 3; with inhibitor at 4 μg/mL) was 0.125 µg/mL. The “MIC of cefalexin (LEX)” value (E. coli 25922) was 0.125 µg/mL.
